According to DBAASP:
Values after ≈ are worked out from the molar mass of the structure shown.

Key:
Experiment in all cases: ≥ marks a high value that may be exact or a test limit, other limits are often not marked, values filed in µg/mL are converted to µM
Bacillus cereus = tested on: Bacillus cereus
Enterococcus faecalis = tested on: Enterococcus faecalis
Escherichia coli = tested on: Escherichia coli
Leuconostoc lactis = tested on: Leuconostoc lactis
Listeria innocua = tested on: Listeria innocua
Micrococcus luteus = tested on: Micrococcus luteus
Pasteurella multocida = tested on: Pasteurella multocida
Staphylococcus aureus = tested on: Staphylococcus aureus
[1] = tested on: Staphylococcus epidermidis
Streptococcus uberis = tested on: Streptococcus uberis
[2] = tested on: Escherichia coli CVCC 1515
Escherichia coli K88 = tested on: Escherichia coli K88
Escherichia coli UB1005 = tested on: Escherichia coli UB1005
[3] = tested on: Pseudomonas aeruginosa ATCC 27853
[4] = tested on: Salmonella enterica subsp. enterica serovar Typhimurium ATCC 14028
[5] = tested on: Staphylococcus epidermidis ATCC 12228
[6] = tested on: Staphylococcus aureus ATCC 25923
[7] = tested on: Staphylococcus aureus ATCC 33591
[8] = tested on: Staphylococcus epidermidis ATCC 35984
[9] = tested on: Bacillus subtilis ATCC 23857
[10] = tested on: Escherichia coli ATCC 25922
[11] = tested on: Staphylococcus aureus USA 300
Bacillus subtilis 168 = tested on: Bacillus subtilis 168
[12] = tested on: Candida albicans F7-39/IDE99
Escherichia coli B = tested on: Escherichia coli B
[13] = tested on: Micrococcus luteus CCM 144
Pseudomonas aeruginosa = tested on: Pseudomonas aeruginosa
[14] = tested on: Staphylococcus aureus ATCC 43300

SMILES	MIC (Staphylococcus aureus)	MIC [1]	MIC [2]	MIC (Escherichia coli K88)	MIC (Escherichia coli UB1005)	MIC [3]	MIC [4]	MIC [5]	MIC [8]	also measured
CC[C@H](C)[C@H](NC(=O)[C@H](C)NC(=O)[C@H](CCC(=O)O)NC(=O)[C@H](Cc1cnc[nH]1)NC(=O)[C@@H](N)Cc1ccccc1)C(=O)N[C@@H](C)C(=O)N1CCC[C@H]1C(=O)N[C@H](C(=O)N[C@H](C(=O)N[C@@H](Cc1cnc[nH]1)C(=O)N[C@@H](C)C(=O)N[C@@H](C)C(=O)N[C@H](C(=O)N[C@@H](CCCCN)C(=O)N[C@@H](C)C(=O)N[C@@H](CC(C)C)C(=O)N[C@H](C(=O)NCC(=O)N[C@@H](Cc1ccccc1)C(=O)N[C@@H](CC(C)C)C(=O)NCC(N)=O)C(C)C)C(C)C)C(C)C)C(C)C [FHEAIAPVVHAAVKALVGFLG]	> 46.6 µM	≥ 46.6 µM	–	–	–	–	–	–	–	MIC (Bacillus cereus): ≥ 46.6 µM; MIC (Enterococcus faecalis): ≥ 46.6 µM; MIC (Escherichia coli): > 46.6 µM; MIC (Leuconostoc lactis): 23.3 µM (≈ 50 µg/mL); MIC (Listeria innocua): ≥ 46.6 µM; MIC (Micrococcus luteus): ≥ 46.6 µM; MIC (Pasteurella multocida): ≥ 46.6 µM; MIC (Streptococcus uberis): ≥ 46.6 µM
CC(C)C[C@H](NC(=O)[C@H](Cc1c[nH]c2ccccc12)NC(=O)[C@H](CCCCN)NC(=O)[C@H](C)NC(=O)[C@H](C)NC(=O)[C@H](C)NC(=O)[C@H](CCCCN)NC(=O)[C@H](C)NC(=O)[C@H](C)NC(=O)[C@H](C)NC(=O)[C@H](CCCCN)NC(=O)[C@H](Cc1c[nH]c2ccccc12)NC(=O)[C@@H](N)CC(C)C)C(N)=O [LWKAAAKAAAKWL]	–	–	8 µM (≈ 11.4 µg/mL)	4 µM (≈ 5.71 µg/mL)	8 µM (≈ 11.4 µg/mL)	16 µM (≈ 22.8 µg/mL)	64 µM (≈ 91.3 µg/mL)	16 µM (≈ 22.8 µg/mL)	–	–
CC(C)C[C@H](NC(=O)[C@@H](N)Cc1ccccc1)C(=O)N[C@@H](CCCCN)C(=O)N[C@@H](CCCCN)C(=O)N[C@@H](C)C(=O)N[C@@H](CCCCN)C(=O)N[C@@H](CCCCN)C(=O)N[C@@H](Cc1ccccc1)C(=O)NCC(=O)N[C@@H](CCCCN)C(=O)N[C@@H](C)C(=O)N[C@@H](Cc1ccccc1)C(N)=O [FLKKAKKFGKAF]	–	–	–	–	–	45.3 µM (≈ 64 µg/mL)	–	–	≥ 181 µM	MIC [6]: > 362 µM; MIC [7]: ≥ 362 µM
CC[C@H](C)[C@H](NC(=O)CNC(=O)[C@@H](N)CCSC)C(=O)N[C@H](C(=O)N[C@@H](C)C(=O)NCC(=O)N[C@H](C(=O)N[C@H](C(=O)N[C@@H](CCCCN)C(=O)N[C@H](C(=O)N[C@H](C(=O)N[C@@H](CCCCN)C(=O)N[C@@H](CO)C(=O)N[C@@H](CC(C)C)C(=O)N[C@H](C(=O)N[C@@H](CCC(=O)O)C(=O)N[C@@H](CCC(N)=O)C(=O)N[C@@H](Cc1ccccc1)C(=O)N[C@H](C(=O)NCC(=O)N[C@@H](CCCCN)C(=O)O)[C@@H](C)O)[C@@H](C)CC)[C@@H](C)CC)C(C)C)[C@@H](C)CC)[C@@H](C)CC)[C@@H](C)CC [MGIIAGIIKVIKSLIEQFTGK]	–	–	–	–	–	–	–	–	≥ 64 µM	MIC [9]: ≥ 128 µM; MIC [10]: > 128 µM; MIC [11]: ≥ 64 µM
CC(C)C[C@H](NC(=O)[C@H](CCCCN)NC(=O)[C@H](C)NC(=O)[C@H](C)NC(=O)[C@H](C)NC(=O)[C@H](CCCCN)NC(=O)[C@H](C)NC(=O)[C@H](C)NC(=O)[C@H](C)NC(=O)[C@H](CCCCN)NC(=O)[C@H](CC(C)C)NC(=O)[C@@H](N)Cc1c[nH]c2ccccc12)C(=O)N[C@@H](Cc1c[nH]c2ccccc12)C(N)=O [WLKAAAKAAAKLW]	–	–	4 µM (≈ 5.71 µg/mL)	2 µM (≈ 2.85 µg/mL)	4 µM (≈ 5.71 µg/mL)	16 µM (≈ 22.8 µg/mL)	8 µM (≈ 11.4 µg/mL)	8 µM (≈ 11.4 µg/mL)	–	–
CC[C@H](C)[C@H](NC(=O)CN)C(=O)N[C@@H](CCSC)C(=O)N[C@@H](CO)C(=O)N[C@@H](CO)C(=O)N[C@@H](CC(C)C)C(=O)N[C@@H](CCSC)C(=O)N[C@@H](CCCCN)C(=O)N[C@@H](CCCCN)C(=O)N[C@@H](CC(C)C)C(=O)N[C@@H](CCCCN)C(=O)N[C@@H](CCCCN)C(=O)N[C@@H](Cc1cnc[nH]1)C(=O)N[C@H](C(=O)N[C@@H](C)C(=O)N[C@@H](CCCCN)C(N)=O)[C@@H](C)CC [GIMSSLMKKLKKHIAK]	> 100 µM	10 µM (≈ 18.1 µg/mL)	–	–	–	6.4 µM (≈ 11.6 µg/mL)	–	–	–	MIC (Bacillus subtilis 168): 7 µM (≈ 12.7 µg/mL); MIC [12]: 12 µM (≈ 21.7 µg/mL); MIC (Escherichia coli B): 26 µM (≈ 47.1 µg/mL); MIC [13]: 3 µM (≈ 5.44 µg/mL); MIC (Pseudomonas aeruginosa): 17 µM (≈ 30.8 µg/mL); MIC [14]: > 100 µM
